# Measured values reported in patent US5245034A, “Compound having vessel smooth muscle relaxation activity” (Hidaka; Kiroyoshi, priority 1988, dated 1993).
# Like-named read-outs stand apart in the source and are kept apart here.
# What was measured:
# [1] = tested on: superior mesenteric artery (contracted by potassium chloride); assay: Vessel Smooth Muscle Relaxation Action (V.R.); format: cell-based, rabbit; settings: Oryctolagus cuniculus, read-out: V.R. (ED50)
# From the text: The specimen was suspended by loading a strain in Krebs-Henseleit solution through which an oxygen gas containing 5% carbon dioxide was bubbled. The specimen was contracted by adding potassium chloride to maintain a predetermined strain. Thereafter, a test compound was cumulatively administrated.
# [2] = tested on: washed platelets; assay: Platelet Agglutination Inhibition (P.A.), collagen-induced; format: cell-based, human (healthy person); settings: Homo sapiens, read-out: P.A. (IC50)
# Description: To this suspension was added one sixth volume of ACD solution, and the whole was further centrifuged at 1500×G for 5 minutes to prepare a platelet pellet. The platelet pellet was then suspended in a modified HEPES Tyrode solution to obtain about 3×10^5 /μl in washed platelet suspension.
# To 270 μl of the washed platelet suspension was added 3 μl of a solution of a test compound dissolved in an appropriate medium in different concentration, and the mixture was pre-incubated at 37° C. for 2 minutes.
# As a control, the above-mentioned procedure was carried out except that the test medium without a test compound was used, and the absorbance before addition of collagen and the maximum absorbance after addition of collagen were measured, and the difference between both absorbances was taken as 100% agglutination.
# For test compound, the absorbance before an addition of collagen and the maximum absorbance after an addition of collagen were measured, and a percent of the inhibition was determined, compared with the control.
# [3] = biological target: Calmodulin-Dependent Phosphodiesterase (Ca^2+ PDE); assay: Calmodulin-Dependent Phosphodiesterase Inhibition (Ca^2+ PDE); format: biochemical, rat; settings: [^3 H]-cGMP, 30° C.
# Method in brief: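 Partially purified rat brain Ca²⁺ PDE with calf brain calmodulin, Tris-HCl pH 8.0, MgCl2, CaCl2; [³H]-cGMP substrate, 15 min at 30 °C. Product converted by 5'-nucleotidase, [³H]-guanosine isolated on cation exchange and counted. IC50 as μM giving 50% inhibition.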
# [4] = concentration relaxing KCl-contracted strain to 50%, cumulative administration
# [5] = washed platelets, collagen, 37° C.
"EC50 [1, 4] [µM]","IC50 [2, 5] [µM]",IC50 [3] [µM],SMILES,EC50 [1] [µM],IC50 [2] [µM]
0.88,20,1.2,CN(C(Cc1ccc(O)cc1)CN1CCCN(C(=O)OCc2ccccc2)CC1)S(=O)(=O)c1cccc2cnccc12 (stereo not drawn) [Example 113],–,–
4.4,19,19,"CC(C=Cc1ccc(Cl)cc1Cl)NCCNS(=O)(=O)c1cccc2cnccc12 (stereo not drawn) [Example 156, N-[2-(2,4-Dichloro-α-Methylcinnamylamino)Ethyl]-5-Isoquinolinesulfonamide]",–,–
3.2,36,8.6,CC(C=Cc1cccc(Cl)c1)NCCNS(=O)(=O)c1cccc2cnccc12 (stereo not drawn) [Example 157],–,–
5.1,24,92,CC(C=Cc1ccc([N+](=O)[O-])cc1)NCCNS(=O)(=O)c1cccc2cnccc12 (stereo not drawn) [Example 159],–,–
1.4,90,–,"CC(C=Cc1ccc(F)cc1)NCCNS(=O)(=O)c1cccc2cnccc12 (stereo not drawn) [Example 166, N-[2-(4-Fluoro-α-Methylcinnamylamino)Ethyl]-5-Isoquinolinesulfonamide]",–,–
1.2,52,–,CC(C=Cc1ccc(Br)cc1)NCCNS(=O)(=O)c1cccc2cnccc12 (stereo not drawn) [Example 167],–,–
3.6,26,–,CC(C=Cc1ccc(C(C)C)cc1)NCCNS(=O)(=O)c1cccc2cnccc12 (stereo not drawn) [Example 168],–,–
1,51,9.4,"O=S(=O)(NCCNCC=Cc1ccc(Cl)cc1)c1cccc2cnccc12 [Example 172, N-[2-(4-Chlorocinnamylamino)ethyl]-5-Isoquinolinesulfonamide]",–,–
2.7,56,24,CC(C)c1ccc(C=CCNCCNS(=O)(=O)c2cccc3cnccc23)cc1 [Example 177],–,–
2.8,51,7.8,"O=S(=O)(NCCNCC=Cc1ccc(C(F)(F)F)cc1)c1cccc2cnccc12 [Example 179, N-[2-(4-Trifluoromethylcinnamylamino)Ethyl]-5-Isoquinolinesulfonamide]",–,–
8.4,38,4.7,O=S(=O)(NCCNCC=CC=CC=Cc1ccc(C(F)(F)F)cc1)c1cccc2cnccc12 [Example 181],–,–

SMILES,"EC50 [1, 4] [µM]","IC50 [2, 5] [µM]",IC50 [3] [µM],EC50 [1] [µM],IC50 [2] [µM]
"O=S(=O)(NCCNCC=Cc1ccc(Br)cc1)c1cccc2cnccc12 [Example 176, N-[2-(4-Bromophenylcinnamylamino)ethyl]-5-Isoquinolinesulfonamide]",–,–,8.5,1.2,55
